Results published in patent US6352958B1, “Cycloimido-substituted benzofused heterocyclic herbicides” (FMC Corporation, priority 1997, dated 2002).

How the values were obtained:
Type in all cases: in vivo
[1] = tested on: blackgrass (Aloepecurus myosuroides); experiment: Postemergence herbicidal activity, blackgrass; conditions: rate of application 0.3 Kg/Ha, rated after 12-17 days
[2] = tested on: soybean (Glycine max var. Winchester); experiment: Postemergence herbicidal activity, soybean; conditions: rate of application 0.3 Kg/Ha, rated after 12-17 days
[3] = tested on: Johnsongrass (Sorghum halepense); experiment: Postemergence herbicidal activity, johnsongrass; conditions: rate of application 0.3 Kg/Ha, rated after 12-17 days
[4] = tested on: common chickweed (Stellaria media); experiment: Preemergence herbicidal activity, chickweed; conditions: Rate of Application 0.3 Kg/Ha, examined after 12-17 days
[5] = tested on: morningglory (Ipomea lacunosa or Ipomea hederacea); experiment: Preemergence herbicidal activity, morningglory; conditions: Rate of Application 0.3 Kg/Ha, examined after 12-17 days
[6] = tested on: velvetleaf (Abutilon theophrasti); experiment: Preemergence herbicidal activity, velvetleaf; conditions: Rate of Application 0.3 Kg/Ha, examined after 12-17 days
[7] = tested on: velvetleaf (Abutilon theophrasti); experiment: Postemergence herbicidal activity, velvetleaf; conditions: rate of application 0.3 Kg/Ha, rated after 12-17 days
[8] = tested on: field corn (Zea mays var. Pioneer 3732); experiment: Postemergence herbicidal activity, corn; conditions: rate of application 0.3 Kg/Ha, rated after 12-17 days
[9] = tested on: green foxtail (Setaria viridis); experiment: Postemergence herbicidal activity, green foxtail; conditions: rate of application 0.3 Kg/Ha, rated after 12-17 days
[10] = tested on: morningglory (Ipomea lacunosa or Ipomea hederacea); experiment: Postemergence herbicidal activity, morningglory; conditions: rate of application 0.3 Kg/Ha, rated after 12-17 days
[11] = tested on: common chickweed (Stellaria media); experiment: Postemergence herbicidal activity, chickweed; conditions: rate of application 0.3 Kg/Ha, rated after 12-17 days
[12] = tested on: green foxtail (Setaria viridis); experiment: Preemergence herbicidal activity, green foxtail; conditions: Rate of Application 0.3 Kg/Ha, examined after 12-17 days
[13] = tested on: common cocklebur (Xanthium strumarium L.); experiment: Preemergence herbicidal activity, cocklebur; conditions: Rate of Application 0.3 Kg/Ha, examined after 12-17 days
[14] = tested on: wheat (Triticum aestivum var. Lew); experiment: Postemergence herbicidal activity, wheat; conditions: rate of application 0.3 Kg/Ha, rated after 12-17 days
[15] = tested on: field corn (Zea mays var. Pioneer 3732); experiment: Preemergence herbicidal activity, corn; conditions: Rate of Application 0.3 Kg/Ha, examined after 12-17 days
[16] = tested on: Johnsongrass (Sorghum halepense); experiment: Preemergence herbicidal activity, johnsongrass; conditions: Rate of Application 0.3 Kg/Ha, examined after 12-17 days
[17] = tested on: soybean (Glycine max var. Winchester); experiment: Preemergence herbicidal activity, soybean; conditions: Rate of Application 0.3 Kg/Ha, examined after 12-17 days
[18] = tested on: wheat (Triticum aestivum var. Lew); experiment: Preemergence herbicidal activity, wheat; conditions: Rate of Application 0.3 Kg/Ha, examined after 12-17 days
[19] = tested on: common cocklebur (Xanthium strumarium L.); experiment: Postemergence herbicidal activity, cocklebur; conditions: rate of application 0.3 Kg/Ha, rated after 12-17 days
[20] = tested on: blackgrass (Aloepecurus myosuroides); experiment: Preemergence herbicidal activity, blackgrass; conditions: Rate of Application 0.3 Kg/Ha, examined after 12-17 days

Structure (SMILES): CC(Cl)c1cc2c(Cl)cc(F)c(-n3c(=O)cc(C(F)(F)F)n(C)c3=O)c2o1 (centres unmarked) [Compound 234]
- Postemergence herbicidal activity (% control) ALOMY [1]: 100%
- Postemergence herbicidal activity (% control) SOY [2]: 100%
- Postemergence herbicidal activity (% control) SORHA [3]: 100%
- PREEMERGENCE HERBICIDAL ACTIVITY (% CONTROL) STEME [4]: 100%
- PREEMERGENCE HERBICIDAL ACTIVITY (% CONTROL) IPOSS [5]: 100%
- PREEMERGENCE HERBICIDAL ACTIVITY (% CONTROL) ABUTH [6]: 100%
- Postemergence herbicidal activity (% control) ABUTH [7]: 100%
- Postemergence herbicidal activity (% control) CRN [8]: 100%
- Postemergence herbicidal activity (% control) SETVI [9]: 100%
- Postemergence herbicidal activity (% control) IPOSS [10]: 100%
- Postemergence herbicidal activity (% control) STEME [11]: 100%
- PREEMERGENCE HERBICIDAL ACTIVITY (% CONTROL) SETVI [12]: 100%
- PREEMERGENCE HERBICIDAL ACTIVITY (% CONTROL) XANPE [13]: 100%
- Postemergence herbicidal activity (% control) WHT [14]: 100%
- PREEMERGENCE HERBICIDAL ACTIVITY (% CONTROL) CRN [15]: 100%
- PREEMERGENCE HERBICIDAL ACTIVITY (% CONTROL) SORHA [16]: 100%
- PREEMERGENCE HERBICIDAL ACTIVITY (% CONTROL) SOY [17]: 100%
- PREEMERGENCE HERBICIDAL ACTIVITY (% CONTROL) WHT [18]: 100%
- Postemergence herbicidal activity (% control) XANPE [19]: 100%
- PREEMERGENCE HERBICIDAL ACTIVITY (% CONTROL) ALOMY [20]: 80%

Structure (SMILES): Cn1c(C(F)(F)F)cc(=O)n(-c2c(F)cc(Cl)c3cc(CCC(=O)O)oc23)c1=O [Compound 262]
- Postemergence herbicidal activity (% control) ALOMY [1]: 50%
- Postemergence herbicidal activity (% control) SOY [2]: 95%
- Postemergence herbicidal activity (% control) SORHA [3]: 80%
- PREEMERGENCE HERBICIDAL ACTIVITY (% CONTROL) STEME [4]: 100%
- PREEMERGENCE HERBICIDAL ACTIVITY (% CONTROL) IPOSS [5]: 100%
- PREEMERGENCE HERBICIDAL ACTIVITY (% CONTROL) ABUTH [6]: 100%
- Postemergence herbicidal activity (% control) ABUTH [7]: 100%
- Postemergence herbicidal activity (% control) CRN [8]: 80%
- Postemergence herbicidal activity (% control) SETVI [9]: 100%
- Postemergence herbicidal activity (% control) IPOSS [10]: 100%
- Postemergence herbicidal activity (% control) STEME [11]: 95%
- PREEMERGENCE HERBICIDAL ACTIVITY (% CONTROL) SETVI [12]: 100%
- PREEMERGENCE HERBICIDAL ACTIVITY (% CONTROL) XANPE [13]: 100%
- Postemergence herbicidal activity (% control) WHT [14]: 60%
- PREEMERGENCE HERBICIDAL ACTIVITY (% CONTROL) CRN [15]: 40%
- PREEMERGENCE HERBICIDAL ACTIVITY (% CONTROL) SORHA [16]: 70%
- PREEMERGENCE HERBICIDAL ACTIVITY (% CONTROL) SOY [17]: 90%
- PREEMERGENCE HERBICIDAL ACTIVITY (% CONTROL) WHT [18]: 40%
- Postemergence herbicidal activity (% control) XANPE [19]: 95%
- PREEMERGENCE HERBICIDAL ACTIVITY (% CONTROL) ALOMY [20]: 50%

Structure (SMILES): Cn1c(C(F)(F)F)cc(=O)n(-c2ccc(Cl)c3cc(NC(=O)OC(C)(C)C)oc23)c1=O [Compound 272]
- Postemergence herbicidal activity (% control) ALOMY [1]: 20%
- Postemergence herbicidal activity (% control) SOY [2]: 50%
- Postemergence herbicidal activity (% control) SORHA [3]: 40%
- PREEMERGENCE HERBICIDAL ACTIVITY (% CONTROL) STEME [4]: 100%
- PREEMERGENCE HERBICIDAL ACTIVITY (% CONTROL) IPOSS [5]: 70%
- PREEMERGENCE HERBICIDAL ACTIVITY (% CONTROL) ABUTH [6]: 100%
- Postemergence herbicidal activity (% control) ABUTH [7]: 100%
- Postemergence herbicidal activity (% control) CRN [8]: 45%
- Postemergence herbicidal activity (% control) SETVI [9]: 70%
- Postemergence herbicidal activity (% control) IPOSS [10]: 60%
- Postemergence herbicidal activity (% control) STEME [11]: 50%
- PREEMERGENCE HERBICIDAL ACTIVITY (% CONTROL) SETVI [12]: 90%
- PREEMERGENCE HERBICIDAL ACTIVITY (% CONTROL) XANPE [13]: 20%
- Postemergence herbicidal activity (% control) WHT [14]: 30%
- PREEMERGENCE HERBICIDAL ACTIVITY (% CONTROL) CRN [15]: 20%
- PREEMERGENCE HERBICIDAL ACTIVITY (% CONTROL) SORHA [16]: 60%
- PREEMERGENCE HERBICIDAL ACTIVITY (% CONTROL) SOY [17]: 20%
- PREEMERGENCE HERBICIDAL ACTIVITY (% CONTROL) WHT [18]: 0%
- Postemergence herbicidal activity (% control) XANPE [19]: 50%
- PREEMERGENCE HERBICIDAL ACTIVITY (% CONTROL) ALOMY [20]: 70%

Structure (SMILES): Cc1nc2c(-n3c(=O)cc(C(F)(F)F)n(C)c3=O)c(F)cc(Cl)c2o1 [Compound 1]
- Postemergence herbicidal activity (% control) ALOMY [1]: 70%
- Postemergence herbicidal activity (% control) SOY [2]: 95%
- Postemergence herbicidal activity (% control) SORHA [3]: 80%
- PREEMERGENCE HERBICIDAL ACTIVITY (% CONTROL) STEME [4]: 100%
- PREEMERGENCE HERBICIDAL ACTIVITY (% CONTROL) IPOSS [5]: 100%
- PREEMERGENCE HERBICIDAL ACTIVITY (% CONTROL) ABUTH [6]: 100%
- Postemergence herbicidal activity (% control) ABUTH [7]: 100%
- Postemergence herbicidal activity (% control) CRN [8]: 80%
- Postemergence herbicidal activity (% control) SETVI [9]: 80%
- Postemergence herbicidal activity (% control) IPOSS [10]: 100%
- Postemergence herbicidal activity (% control) STEME [11]: 90%
- PREEMERGENCE HERBICIDAL ACTIVITY (% CONTROL) SETVI [12]: 100%
- PREEMERGENCE HERBICIDAL ACTIVITY (% CONTROL) XANPE [13]: 100%
- Postemergence herbicidal activity (% control) WHT [14]: 65%
- PREEMERGENCE HERBICIDAL ACTIVITY (% CONTROL) CRN [15]: 90%
- PREEMERGENCE HERBICIDAL ACTIVITY (% CONTROL) SORHA [16]: 95%
- PREEMERGENCE HERBICIDAL ACTIVITY (% CONTROL) SOY [17]: 100%
- PREEMERGENCE HERBICIDAL ACTIVITY (% CONTROL) WHT [18]: 85%
- Postemergence herbicidal activity (% control) XANPE [19]: 100%
- PREEMERGENCE HERBICIDAL ACTIVITY (% CONTROL) ALOMY [20]: 90%
